In ChEMBL document CHEMBL1201862, “PubChem BioAssay data set” (2004):
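Method: 48-hour compound exposure of cells in 96-well plates, five concentrations, linear interpolation of endpoints. GI50: concentration for 50% inhibition of growth.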 The source made the active and inactive calls. Rule as the data show it: active = GI50 up to about 1.1 µM and inactive = higher.

Columns and labels:
Assay in all cases: DTP human tumour cell line panel, 48 h
A549 = test system: A549
ACHN = test system: ACHN
BT-549 = test system: BT-549
CAKI-1 = test system: CAKI-1
EKVX = test system: EKVX
HOP-92 = test system: HOP-92
IGROV-1 = test system: IGROV-1
LOX IMVI = test system: LOX IMVI
M14 = test system: M14
MCF7 = test system: MCF7
MDA-N = test system: MDA-N
NCI-H460 = test system: NCI-H460
NCI-H522 = test system: NCI-H522
OVCAR-8 = test system: OVCAR-8
SK-MEL-28 = test system: SK-MEL-28
SN12C = test system: SN12C
UACC-257 = test system: UACC-257
UACC-62 = test system: UACC-62
T47D = test system: T47D
A498 = test system: A498

Measured: GI50

COC(=O)/C=C\COCC1C2CCC(=O)C21 (stereo not drawn)
inactive: A549 > 25 µM | ACHN 11.6 µM | BT-549 11 µM | EKVX 9.16 µM | HOP-92 5.77 µM | IGROV-1 10.5 µM | LOX IMVI 14.5 µM | M14 8.36 µM | MCF7 10.3 µM | MDA-N > 25 µM | NCI-H460 6.79 µM | NCI-H522 3.86 µM | OVCAR-8 > 25 µM | SK-MEL-28 > 25 µM | SN12C > 25 µM | UACC-257 10.4 µM | UACC-62 16.4 µM
active: CAKI-1 0.632 µM

Cc1ccc(S(=O)(=O)N/N=C2/C3C(CC2(C)C)C2(C)CCCC3(C)C2O)cc1 (stereo not drawn)
inactive: A549 20 µM | ACHN > 10 µM | BT-549 14.3 µM | CAKI-1 39.3 µM | EKVX 45.7 µM | HOP-92 17.2 µM | IGROV-1 25 µM | LOX IMVI 13.4 µM | M14 22.9 µM | MCF7 17.5 µM | MDA-N 20.1 µM | NCI-H460 17.8 µM | NCI-H522 19.6 µM | OVCAR-8 32.7 µM | SK-MEL-28 18.9 µM | SN12C 19.9 µM | T47D 18.2 µM | UACC-257 16.8 µM | UACC-62 14.8 µM

CC(C)(C)[C@H]1NC(=O)CN1C(=O)OCc1ccccc1
inactive: A498 10.7 µM | A549 > 100 µM | ACHN 82.2 µM | BT-549 > 100 µM | EKVX > 100 µM | HOP-92 5.12 µM | IGROV-1 > 100 µM | LOX IMVI 43.6 µM | M14 > 100 µM | MCF7 > 100 µM | NCI-H460 > 100 µM | NCI-H522 > 100 µM | OVCAR-8 > 100 µM | SK-MEL-28 > 100 µM | SN12C > 100 µM | T47D 60.8 µM | UACC-257 98.9 µM | UACC-62 > 100 µM

CN(N=O)N1C(=O)SCC(c2ccccc2)(c2ccccc2)C1=O
inactive: A498 > 100 µM | A549 7.98 µM | ACHN 37.2 µM | CAKI-1 46.3 µM | EKVX 34.7 µM | HOP-92 38.9 µM | LOX IMVI 30 µM | M14 37.5 µM | MCF7 20.9 µM | MDA-N 28.4 µM | NCI-H460 9.62 µM | NCI-H522 23.3 µM | OVCAR-8 16.2 µM | SK-MEL-28 36.8 µM | SN12C 31.6 µM | T47D 67.8 µM | UACC-257 64.3 µM | UACC-62 37.8 µM

CCOC(=O)c1ccc(C(=O)OCC)n1-c1cc2cc(c1)CSCc1cc(cc(-n3c(C(=O)OCC)ccc3C(=O)OCC)c1)CSC2
inactive: A549 > 10 µM | ACHN > 10 µM | BT-549 > 10 µM | CAKI-1 > 10 µM | EKVX > 10 µM | HOP-92 > 10 µM | IGROV-1 > 10 µM | LOX IMVI > 10 µM | M14 > 10 µM | MCF7 > 10 µM | MDA-N > 10 µM | NCI-H460 > 10 µM | NCI-H522 > 10 µM | OVCAR-8 > 10 µM | SK-MEL-28 > 10 µM | SN12C > 10 µM | T47D > 10 µM | UACC-257 > 10 µM | UACC-62 > 10 µM

CC(C)(C)c1cc(C(=O)Nc2cc(Br)c(Br)cc2S(N)(=O)=O)cc(C(C)(C)C)c1O
inactive: A549 9.12 µM | ACHN 11.3 µM | BT-549 12.2 µM | CAKI-1 9.93 µM | EKVX 12.8 µM | HOP-92 6.52 µM | IGROV-1 12.6 µM | LOX IMVI 6.46 µM | M14 15.2 µM | MCF7 5.37 µM | NCI-H522 11.8 µM | OVCAR-8 13.3 µM | SK-MEL-28 13.4 µM | SN12C 7.24 µM | T47D 3.24 µM | UACC-257 17.9 µM | UACC-62 6.08 µM

O=C1C=CC(=O)c2c1cc1ccccc1c2O
inactive: A498 13.5 µM | A549 16.7 µM | ACHN 2.84 µM | BT-549 9.38 µM | CAKI-1 4.21 µM | EKVX 11.5 µM | HOP-92 1.8 µM | IGROV-1 5.28 µM | LOX IMVI 2.72 µM | M14 10.7 µM | MDA-N 5.26 µM | NCI-H460 19.1 µM | NCI-H522 1.9 µM | OVCAR-8 2.58 µM | SK-MEL-28 9.25 µM | SN12C 12.3 µM | T47D 1.61 µM | UACC-257 3.18 µM | UACC-62 6.32 µM

O=C1Nc2ccccc2C1S(=O)(=O)c1ccccc1 (stereo not drawn)
inactive: A498 > 100 µM | A549 > 100 µM | ACHN > 100 µM | BT-549 > 100 µM | CAKI-1 > 100 µM | EKVX > 100 µM | HOP-92 > 100 µM | IGROV-1 > 100 µM | LOX IMVI > 100 µM | M14 > 100 µM | MDA-N > 100 µM | NCI-H460 > 100 µM | NCI-H522 > 100 µM | OVCAR-8 > 100 µM | SK-MEL-28 > 100 µM | SN12C > 100 µM | T47D > 100 µM | UACC-257 > 100 µM | UACC-62 > 100 µM

C[C@]12CC[C@H](O)C=C1CC[C@@H]1[C@@H]2CC[C@]2(C)C(=N/O)/C(=C/c3ccncc3)C[C@@H]12
inactive: A549 5.19 µM | ACHN 8.43 µM | BT-549 20 µM | CAKI-1 14.9 µM | EKVX 16.4 µM | HOP-92 7.48 µM | IGROV-1 14.8 µM | LOX IMVI 11.5 µM | M14 5.7 µM | MCF7 3.87 µM | MDA-N 9.51 µM | NCI-H460 6.1 µM | NCI-H522 9.35 µM | OVCAR-8 16 µM | SK-MEL-28 19.7 µM | SN12C 12.1 µM | T47D 5.38 µM | UACC-257 7.67 µM | UACC-62 5.98 µM

CC1=C(C)SC(=C2Sc3[n-]c(=O)[nH]c(=O)c3S2)S1.CCCC[N+](CCCC)(CCCC)CCCC
inactive: A498 > 100 µM | A549 > 100 µM | ACHN > 100 µM | BT-549 > 100 µM | CAKI-1 > 100 µM | EKVX > 100 µM | HOP-92 > 100 µM | IGROV-1 > 100 µM | LOX IMVI 44.6 µM | M14 31.3 µM | MCF7 42.5 µM | NCI-H460 > 100 µM | NCI-H522 15.1 µM | OVCAR-8 49.4 µM | SK-MEL-28 39.2 µM | SN12C > 100 µM | UACC-257 > 100 µM | UACC-62 27.2 µM

CCNC1CC(C(C)(C)NCC)CC=C1C (stereo not drawn)
inactive: A549 > 100 µM | BT-549 > 100 µM | EKVX > 100 µM | HOP-92 > 100 µM | IGROV-1 > 100 µM | LOX IMVI > 100 µM | M14 > 100 µM | MCF7 > 100 µM | MDA-N > 100 µM | NCI-H460 > 100 µM | NCI-H522 > 100 µM | OVCAR-8 > 100 µM | SK-MEL-28 > 100 µM | SN12C > 100 µM | T47D > 100 µM | UACC-257 > 100 µM | UACC-62 > 100 µM

COc1cccc(CCCNC(=O)Cc2cc(OC)c(OC)cc2CO)c1
inactive: A498 > 100 µM | A549 > 100 µM | ACHN > 100 µM | BT-549 > 100 µM | CAKI-1 > 100 µM | EKVX > 100 µM | HOP-92 > 100 µM | IGROV-1 > 100 µM | LOX IMVI > 100 µM | M14 > 100 µM | MDA-N > 100 µM | NCI-H460 > 100 µM | OVCAR-8 > 100 µM | SK-MEL-28 > 100 µM | SN12C > 100 µM | T47D 39.1 µM | UACC-257 > 100 µM | UACC-62 > 100 µM

O=c1c2c(oc3ccccc13)-c1ccccc1OC2
inactive: A549 96.6 µM | ACHN 35.7 µM | BT-549 > 100 µM | CAKI-1 26.1 µM | EKVX 53.2 µM | IGROV-1 36.7 µM | LOX IMVI 46 µM | M14 > 100 µM | MCF7 > 100 µM | MDA-N > 100 µM | NCI-H522 > 100 µM | OVCAR-8 27.9 µM | SN12C 53.3 µM | T47D 16.3 µM | UACC-257 > 100 µM | UACC-62 > 100 µM

CCc1nc2c(n1CC)C(=O)c1ccccc1C2=O
inactive: A549 43.2 µM | ACHN 39 µM | BT-549 17.2 µM | EKVX 91.6 µM | HOP-92 63.2 µM | IGROV-1 24.5 µM | M14 23.7 µM | MCF7 49.1 µM | MDA-N > 10 µM | NCI-H460 39.1 µM | NCI-H522 31.6 µM | OVCAR-8 32.8 µM | SK-MEL-28 56.1 µM | SN12C 27.8 µM | T47D 18.3 µM | UACC-257 25.4 µM | UACC-62 28.8 µM

CSC1=N/C(=C\c2c[nH]c3ccccc23)C(=O)N1
inactive: A498 38.1 µM | A549 69.8 µM | ACHN 44.4 µM | BT-549 > 100 µM | HOP-92 > 100 µM | IGROV-1 67.6 µM | LOX IMVI 78.3 µM | M14 73.6 µM | MCF7 28.8 µM | NCI-H460 49.7 µM | OVCAR-8 > 100 µM | SK-MEL-28 > 100 µM | SN12C > 100 µM | T47D 53.2 µM | UACC-257 > 100 µM | UACC-62 92.9 µM
